Results from US20260294874A1, “COMPOSITIONS COMPRISING MODULATORS OF RIBONUCLEOPROTEIN GRANULE FORMATION AND DISSOLUTION AND METHODS OF USE THEREOF” (University of Virginia Patent Foundation, priority 2023, published 2026).
Read-outs that look alike come from different tables or passages of the source.

Experiments:
[1] = system: stress granules and P-bodies; details: literature, cited from earlier work
[2] = system: stress granules (G3BP1 foci) in HeLa cells; experiment: Immunofluorescence phenotypic screen for stress granules (α-G3BP1) in stressed HeLa cells; type: cell-based; details: 25 μM, 2 h
Experimental: (§1) SuTEx compound treatments. Prior to treatments, cells were washed twice with warm phosphate-buffered saline (PBS) and exchanged with serum-free DMEM (supplemented with 1% L-glutamine) for at least 30 minutes at 37° C. with 5% CO2. Compounds were then added as 1000×DMSO stocks (10 μL for 10 cm dishes and 3 μL for 6-well dishes), plates were mixed gently, and cells were incubated for two hours. All compounds were thoroughly vortexed and sonicated for five minutes prior to addition to ensure complete solvation. For microscopy experiments, cultures were seeded at 150,000 cells in 3 mL of DMEM in 6-well THERMO SCIENTIFIC™ BIOLITE™ brand microwell plates (Catalog No. 12556004; Thermo Fisher Scientific Inc., Waltham, Massachusetts. United States of America). For collection, media was aspirated, and cells were washed once with cold PBS before scraping from plates. Cells were centrifuged at 500×g at 4° C. for 5 minutes and supernatant was removed. Cell pellets were resuspended in cold PBS (1 mL) and centrifuged at 1,400×g at 4° C. for 3 minutes. Supernatant was again removed, and pellets were then snap-frozen in liquid nitrogen and stored at −80° C. until needed.
(§2) Immunofluorescence. Immunofluorescence (IF) of HEK293T cells was performed as previously described in Ciancone et al., 2022. HeLa cells were seeded at 9.0×10^4 in a 24-well plate with 12-mm glass coverslips. The next day, the cells were treated with 25 μM SuTEx probe for 2 hours in DMEM medium without FBS. The cells were then treated with 75 μM NaAsO2 for 30 minutes and fixed with 3% paraformaldehyde in PBS for 15 minutes at room temperature (RT) and washed with PBS twice. The fixed cells were permeabilized with PBST (0.1% Triton X-100) for 15 minutes at room temperature and blocked with 5% goat serum in PBST for 30 minutes at RT. The cells were incubated with anti-G3BP1 antibody H-10 (Catalog No. sc-365338 at 1:200 dilution; Santa Cruz Biotechnology, Inc., Dallas, Texas, United States of America) for 2 hours at RT and washed with PBST (0.1% Tween-20) for 5 minutes three times. Next, cells were incubated with goat anti-mouse Alexa 594 antibody (Catalog No. 115-585-003 at 1:800 dilution; Jackson ImmunoResearch, West Grove, Pennsylvania, United States of America) for 30 minutes at RT. The cells were washed twice with PBST, stained with Hoechst 33342 (Catalog No. H3570 at […]; Thermo Fischer Scientific) in PBST for 5 minutes, and washed with PBS twice for 5 minutes. The coverslips were mounted in PROLONG™ Gold AntiFade Mountant (Catalog No. P36930, Thermo Fisher Scientific) and imaged using NIS Elements AR software and a Nikon Eclipse Ti microscope equipped with a ×100 objective and CMOS camera. […] A CellProfiler pipeline was developed to quantify the number of stress granules under each condition. Briefly, cells were recognized as blue^+ (nuclei) red^+ (G3BP1) objects, and the red^+ granules that meet the shape and size threshold were identified and counted. Cells on the border of linages were excluded from the analysis for more accurate quantification.
We used immunofluorescence (IF) detection for phenotypic screening of SuTEx compound activity on stress-induced PB and SG levels in cells (FIG. 1B). PBs were induced through glucose deprivation of HEK293T cells and detected by immunofluorescence with anti-enhancer of mRNA-decapping protein 4 (EDC4) as previously described (Kedersha & Anderson, 2007; Ciancone et al., 2022) (~4 vs 2 PBs/cell in −glucose and +glucose conditions, respectively; FIG. 8). EDC4 is an established PB marker for mammalian cells and is important for PB formation (Kedersha & Anderson, 2007; Luo et al., 2018). SGs were induced in HeLa cells by [COMPOUND LEFT OUT] treatments and detected by fluorescent staining with anti-Ras GTPase-activating protein-binding protein 1 (G3BP1) antibody (75 μM [COMPOUND LEFT OUT], 30 min; FIG. 9). G3BP1 foci have been used in previous IF studies to identify SGs in cells (Kedersha & Anderson, 2007). […]

[3] = system: P-bodies (EDC4 foci) in HEK293T cells; experiment: Immunofluorescence phenotypic screen for P-bodies (α-EDC4) in glucose-deprived HEK293T cells; type: cell-based
Experimental: as §1, §2
Data Analysis—Microscopy. All slides were blinded for imaging. Leica SP5X images were analyzed using Fiji (ImageJ). Custom macros were written for analysis and can be obtained upon request. To elaborate, images were split into channels based on the different laser wavelengths measured. Image stacks were then combined using ‘Z-Project’ with an average intensity parameter and a threshold was applied to exclude noise based on the negative control (no EDC4 antibody). The ‘Analyze Particles’ function was used with relevant size and circularity constraints (0.85-1.00) to count the number of foci, with total PBs having a diameter of >150 nm, and large PBs>450 nm. The number of foci was normalized to the number of cells (defined by a DAPI stain count) in each linage, and the number of foci per cell was averaged across technical replicates. Every sample had at least two technical replicates and two independent biological replicates. […]

[4] = system: eIF4A; details: literature; cited from earlier work
[5] = glucose-deprived HEK293T cells, 25 μM, 2 h

Row | SMILES | effect on RNP granules (in words) [1] | inhibition of eIF4A (in words) [4] | also measured
1 | O=c1[nH]cc(F)c(=O)[nH]1 [5-fluorouracil] | formation of pro-survival SGs in solid tumors | – | –
2 | O=S(=O)(c1cccnc1)n1cc(-c2ccccc2F)nn1 [AMC-001, 3-((4-(2-Fluorophenyl)-1H-1,2,3-triazol-1-yl)sulfonyl)pyridine] | – | – | effect on SGs (in words) [2]: negligible effects on the number of SGs per cell; fold induction at 25 µM ([3]; Homo sapiens, HEK-293T, glucose-deprived HEK293T cells, pretreatment, 25 μM, 2 h, read-out: increase in PBs/cells): > 2; effect on PBs (in words) [3, 5]: statistically significant increase in PBs per glucose-deprived cell; increase in PBs ([3]; glucose-deprived cells, pretreatment): > 200%
3 | O=S(=O)(c1ccc(F)cc1)n1cnc(-c2cccnc2)n1 [JWB180, 3-(1-((4-Fluorophenyl)sulfonyl)-1H-1,2,4-triazol-3-yl)pyridine] | – | – | effect on SGs (in words) [2]: negligible effects; effect on PBs (in words) [3, 5]: negligible effects
4 | CC(C)C[C@H](NC(=O)[C@H](Cc1ccccc1)NC(=O)c1cnccn1)B(O)O [bortezomib] | formation of pro-survival SGs in solid tumors | – | –
5 | C[C@@H]1C[C@@H]([C@H](O)CC2CC(=O)NC(=O)C2)C(=O)[C@@H](C)C1 [cycloheximide] | – | – | toxicity (in words) [1]: significant toxicity
6 | CC[C@H]1CN2CCc3cc(OC)c(OC)cc3[C@@H]2C[C@@H]1C[C@H]1NCCc2cc(OC)c(OC)cc21 [emetine] | disassemble SGs and stress-induced PBs | – | effect on PB formation (in words) ([3]; emetine 50 nM, 2 h, vs vehicle (water), p<0.001): inhibited PB formation; toxicity (in words) [1]: significant toxicity; effect on RNP granules (in words) ([1]; listed as Emetine): inhibit and even dissociate PBs
7 | C[C@H]1C[C@@]2(O[C@H]3C[C@H]4[C@@H]5CC[C@H]6C[C@H](O)CC[C@]6(C)[C@H]5[C@@H](O)C[C@]4(C)[C@H]3[C@@]2(C)O)OC1(C)C [hippuristanol] | induce SGs in an eIF2a-independent manner | inhibit eIF4A | –
8 | CC(/C=C/C(C)=C/[C@@H]1Cc2nc(cs2)[C@@H](C)C[C@@H](N)CC(=O)O[C@@H](C)C/C(C)=C/C=C\C(=O)O1)=C\CN(C)C [pateamine A] | induce SGs in an eIF2a-independent manner | inhibit eIF4A | –
9 | COc1ccc([C@@]23Oc4cc(OC)cc(OC)c4[C@]2(O)[C@H](O)[C@H](C(=O)N(C)C)[C@H]3c2ccccc2)cc1 [rocaglamide A] | – | inhibit eIF4A | –
10 | COC(=O)[C@H]1[C@@H](O)[C@@]2(O)c3c(OC)cc(O[C@@H]4O[C@@H]([C@H](O)CO)CO[C@H]4OC)cc3O[C@@]2(c2ccc(OC)cc2)[C@@H]1c1ccccc1 [silvestrol] | – | inhibit eIF4A | –
11 | CC[C@]1(O)C[C@@H]2CN(CCc3c([nH]c4ccccc34)[C@@](C(=O)OC)(c3cc4c(cc3OC)N(C)[C@H]3[C@@](O)(C(=O)OC)[C@H](OC(C)=O)[C@]5(CC)C=CCN6CC[C@]43[C@@H]65)C2)C1 [vinblastine] | form PBs | – | –
